From patent publication US8143294B2, “2-sulfanyl-substituted imidazole derivatives and their use as cytokine inhibitors” (priority 2007, dated 2012)

molecular target: p38α (Homo sapiens, UniProt Q16539); test: P38α enzyme inhibition assay (ATF-2 phosphorylation ELISA); assay type: biochemical; conditions: activated p38α, substrate ATF-2, ATP 100 μM, 60 minutes incubation, photometric readout 405 nm; read-out: Kinase assay IC50
Method: P38α Enzyme Inhibition Assay:
First the microtiter plates are coated using a dilution of ATF-2, substrate of p38α. Each step is followed by a threefold washing step. As the substrate doesn't cover the whole surface, blocking buffer is used to capture the free binding sites. In the meantime, the test compounds are diluted using the kinase buffer, which contains ATP [100 μM], phosphatase-inhibitors and the activated p38α.
The different dilutions of the test compounds are pipetted on the plate. ATP and the compounds compete for the enzyme's binding site. During an incubation time of 60 minutes ATF-2 is dual phosphorylated at Thr 69/71 by p38α kinase depending on its degree of inhibition. Next the first antibody is added into the wells. This antibody binds specifically at dual phosphorylated ATF-2 (Thr 69/71). Secondary antibody, that is conjugated with alkaline phosphatase, binds at the first one. Finally 4-NPP is given in the wells and after an incubation under cover of darkness it is photometrically analysed (405 nm).

Sequence of p38α (Q16539 whole entry): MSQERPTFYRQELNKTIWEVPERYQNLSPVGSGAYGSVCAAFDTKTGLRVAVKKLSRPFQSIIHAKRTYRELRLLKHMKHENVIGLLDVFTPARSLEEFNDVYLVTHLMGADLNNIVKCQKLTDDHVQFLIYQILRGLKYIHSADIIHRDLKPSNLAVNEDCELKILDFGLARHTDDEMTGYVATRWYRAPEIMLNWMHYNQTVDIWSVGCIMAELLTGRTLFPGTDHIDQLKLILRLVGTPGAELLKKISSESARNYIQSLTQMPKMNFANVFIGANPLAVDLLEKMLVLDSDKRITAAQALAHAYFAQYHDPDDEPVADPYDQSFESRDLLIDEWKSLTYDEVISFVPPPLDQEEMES

Structure (SMILES)	IC50
COC(=O)CSc1nc(-c2ccc(F)cc2)c(-c2ccnc(NC(C)c3ccccc3)c2)[nH]1 (stereo not drawn) [Example 8p, methyl 2-(4-(4-fluorophenyl)-5-(2-(1-phenylethylamino)pyridin-4-yl)-1H-imidazol-2-ylthio)acetate]	35 nM
CCNc1cc(-c2[nH]c(SCC(O)CO)nc2-c2ccc(F)cc2)ccn1 (stereo not drawn) [Example 8d, 3-(5-(2-(Ethylamino)pyridin-4-yl)-4-(4-fluorophenyl)-1H-imidazol-2-ylthio)propane-1,2-diol]	26 nM
CC(C)CNc1cc(-c2[nH]c(SCC(O)CO)nc2-c2ccc(F)cc2)ccn1 (stereo not drawn) [Example 8c, 3-(4-(4-Fluorophenyl)-5-(2-(isobutylamino)pyridin-4-yl)-1H-imidazol-2-ylthio)propane-1,2-diol]	13 nM
CC(C)Nc1cc(-c2[nH]c(SCC(O)CO)nc2-c2ccc(F)cc2)ccn1 (stereo not drawn) [Example 8h, 3-(4-(4-Fluorophenyl)-5-(2-(isopropylamino)pyridin-4-yl)-1H-imidazol-2-ylthio)propane-1,2-diol]	3.6 nM
OCC(O)CSc1nc(-c2ccc(F)cc2)c(-c2ccnc(NC3CCOCC3)c2)[nH]1 (stereo not drawn) [Example 8i, 3-(4-(4-Fluorophenyl)-5-(2-(tetrahydro-2H-pyran-4-ylamino)pyridin-4-yl)-1H-imidazol-2-ylthio)propane-1,2-diol]	3.3 nM
CC(C)C(C)Nc1cc(-c2[nH]c(SCCO)nc2-c2ccc(F)cc2)ccn1 (stereo not drawn) [Example 8k, 2-(4-(4-Fluorophenyl)-5-(2-(3-methylbutan-2-ylamino)pyridin-4-yl)-1H-imidazol-2-ylthio)ethanol]	10 nM
CC(C)Nc1cc(-c2[nH]c(SC[C@H](O)CO)nc2-c2ccc(F)cc2)ccn1 [Example 8n, (2R)-3-(4-(4-Fluorophenyl)-5-(2-(isopropylamino)pyridin-4-yl)-1H-imidazol-2-ylthio)propane-1,2-diol]	5.5 nM
CC(Nc1cc(-c2[nH]c(SCC(=O)O)nc2-c2ccc(F)cc2)ccn1)c1ccccc1 (stereo not drawn) [Example 8q, 2-(4-(4-fluorophenyl)-5-(2-(1-phenylethylamino)pyridin-4-yl)-1H-imidazol-2-ylthio)acetic acid]	36 nM
CC(C)Nc1cc(-c2[nH]c(SC[C@@H](O)CO)nc2-c2ccc(F)cc2)ccn1 [Example 8o, (2S)-3-(4-(4-Fluorophenyl)-5-(2-(isopropylamino)pyridin-4-yl)-1H-imidazol-2-ylthio)propane-1,2-diol]	3.2 nM
CC(Nc1cc(-c2[nH]c(SCC(O)CO)nc2-c2ccc(F)cc2)ccn1)c1ccccc1 (stereo not drawn) [Example 8a, 3-(4-(4-Fluorophenyl)-5-(2-(1-phenylethylamino)pyridin-4-yl)-1H-imidazol-2-ylthio)propane-1,2-diol]	42 nM
CCOP(=O)(CSc1nc(-c2ccc(F)cc2)c(-c2ccnc(NC(C)c3ccccc3)c2)[nH]1)OCC (stereo not drawn) [Example 8r, Diethyl (4-(4-fluorophenyl)-5-(2-(1-phenylethylamino)pyridin-4-yl)-1H-imidazol-2-ylthio)methylphosphonate]	400 nM
CC(C)C(C)Nc1cc(-c2[nH]c(SCC(O)CO)nc2-c2ccc(F)cc2)ccn1 (stereo not drawn) [Example 8f, 3-(4-(4-Fluorophenyl)-5-(2-(3-methylbutan-2-ylamino)pyridin-4-yl)-1H-imidazol-2-ylthio)propane-1,2-diol]	14 nM
CNc1cc(-c2[nH]c(SCC(O)CO)nc2-c2ccc(F)cc2)ccn1 (stereo not drawn) [Example 8e, 3-(4-(4-Fluorophenyl)-5-(2-(methylamino)pyridin-4-yl)-1H-imidazol-2-ylthio)propane-1,2-diol]	100 nM
CC(C)C(C)Nc1cc(-c2[nH]c(SC[C@H](O)CO)nc2-c2ccc(F)cc2)ccn1 (stereo partly drawn) [Example 8l, (2R)-3-(4-(4-Fluorophenyl)-5-(2-(3-methylbutan-2-ylamino)pyridin-4-yl)-1H-imidazol-2-ylthio)propane-1,2-diol]	17 nM
CC(C)C(C)Nc1cc(-c2[nH]c(SC[C@@H](O)CO)nc2-c2ccc(F)cc2)ccn1 (stereo partly drawn) [Example 8m, (2S)-3-(4-(4-Fluorophenyl)-5-(2-(3-methylbutan-2-ylamino)pyridin-4-yl)-1H-imidazol-2-ylthio)propane-1,2-diol]	9.5 nM
OCC(O)CSc1nc(-c2ccc(F)cc2)c(-c2ccnc(NCc3ccccc3)c2)[nH]1 (stereo not drawn) [Example 8b, 3-(5-(2-(1-Benzylamino)pyridin-4-yl)-4-(4-fluorophenyl)-1H-imidazol-2-ylthio)propane-1,2-diol]	87 nM
CCC(C)Nc1cc(-c2[nH]c(SCC(O)CO)nc2-c2ccc(F)cc2)ccn1 (stereo not drawn) [Example 8g, 3-(4-(4-Fluorophenyl)-5-(2-(sec-butylamino)pyridin-4-yl)-1H-imidazol-2-ylthio)propane-1,2-diol]	5.1 nM

Next, values leading:

IC50	Structure (SMILES)
3 nM	CC(C)Nc1cc(-c2[nH]c(SCCO)nc2-c2ccc(F)cc2)ccn1 [Example 8u, 2-(4-(4-Fluorophenyl)-5-(2-(isopropylamino)pyridin-4-yl)-1H-imidazol-2-ylthio)ethanol]
2 nM	OCCSc1nc(-c2ccc(F)cc2)c(-c2ccnc(N[C@H]3CC[C@H](O)CC3)c2)[nH]1 [Example 8w, (1R,4R)-4-(4-(4-(4-Fluorophenyl)-2-(2-hydroxyethylthio)-1H-imidazol-5-yl)pyridin-2-ylamino)cyclohexanol]
2.3 nM	OCCSc1nc(-c2ccc(F)cc2)c(-c2ccnc(NC3CCOCC3)c2)[nH]1 [Example 8v, 2-(4-(4-Fluorophenyl)-5-(2-(tetrahydro-2H-pyran-4-ylamino)pyridin-4-yl)-1H-imidazol-2-ylthio)ethanol]
20 nM	COC(=O)CSc1nc(-c2ccc(F)cc2)c(-c2ccnc(NC(C)C(C)C)c2)[nH]1 (stereo not drawn) [Example 8s, Methyl 2-(4-(4-fluorophenyl)-5-(2-(3-methylbutan-2-ylamino)pyridin-4-yl)-1H-imidazol-2-ylthio)acetate]
14 nM	CC(Nc1cc(-c2[nH]c(SCCO)nc2-c2ccc(F)cc2)ccn1)c1ccccc1 (stereo not drawn) [Example 8x, 2-(4-(4-Fluorophenyl)-5-(2-(1-phenylethylamino)pyridin-4-yl)-1H-imidazol-2-ylthio)ethanol]
3600 nM	OCC(O)CSc1nc(-c2ccc(F)cc2)c(-c2ccncc2)[nH]1 (stereo not drawn) [reference compound]
3.6 nM	COC(=O)CSc1nc(-c2ccc(F)cc2)c(-c2ccnc(NC(C)C)c2)[nH]1 [Example 8t, Methyl 2-(4-(4-fluorophenyl)-5-(2-(isopropylamino)pyridin-4-yl)-1H-imidazol-2-ylthio)acetate]
